Data as given in patent US3954730A, “6-(Substituted-cycloalkylcarboxamide) penicillanic acids” (Bayer Aktiengesellschaft, priority 1973, dated 1976).
Where a name gives a salt, the structure may show the parent alone.

What was measured:
E. coli 14 = assay: Minimum inhibitory concentration (MIC) in vitro, liquid medium test tube series dilution test; format: cell-based; details: 24 hours incubation at 37° C
Protocol: (§1) They were determined in a liquid medium in a test tube series dilution test, the readings being taken after 24 hours incubation at 37° C.
(§2) The numbers allotted to the compounds of the invention in Table 1 correspond to the numbers of the Preparative Examples in which the preparation of the particular compounds are described.
(§3) The MIC is indicated by the non-turbid test tube in the dilution series. A complete medium of the following composition was used as the growth medium: […]

Ent. ATCC 9790 = assay: as above; format: cell-based, Enterococcus; details: 24 hours incubation at 37° C
Protocol: as §1, §2, §3

Staph. aureus 133 = assay: as above; format: cell-based; details: 24 hours incubation at 37° C
Protocol: (§4) Table 1, which follows, specifies the minimum inhibitory concentrations (MIC) in vitro, in U/ml of nutrient medium of typical compounds of the invention. They were determined in a liquid medium in a test tube series dilution test, the readings being taken after 24 hours incubation at 37° C.
as §2, §3

Staph. aureus 1756 = assay: as above; format: cell-based; details: 24 hours incubation at 37° C
Protocol: as §4, §2, §3

E. coli C 165 = assay: as above; format: cell-based; details: 24 hours incubation at 37° C
Protocol: as §4, §2, §3

[1] = system: Pasteurella pseudotuberculosis; format: cell-based; details: 100 μg/ml, 24 hours
E. coli BE = assay: Turbidity test in Muller-Hinton nutrient broth at 100 μg/ml; format: cell-based; details: 24 hours
[2] = system: Neisseria catarrhalis sp.; assay: as above; format: cell-based
Brucella sp. = format: cell-based; details: 100 μg/ml, 24 hours
Shigella sp. = assay: Turbidity test in Muller-Hinton nutrient broth at 100 μg/ml; format: cell-based
[3] = system: Corynebacterium pyrogenes M; assay: as above; format: cell-based
Haemophilus influenzae = assay: as above; format: cell-based
Enterococcus sp. = assay: as above; format: cell-based
[4] = system: Diplococcus pneumoniae sp.; assay: as above; format: cell-based
Salmonella sp. = assay: as above; format: cell-based
Clostridium botulinium = format: cell-based
[5] = system: Staphylococcus aureus 133; assay: Turbidity test in Muller-Hinton nutrient broth at 100 μg/ml; format: cell-based
[6] = system: Proteus indolnegativ, sp.; assay: as above; format: cell-based
Lactobacillus sp. = assay: as above; format: cell-based
Bordetella bronciseptica = assay: as above; format: cell-based
[7] = system: Corynebacterium diphteriae gravis; assay: as above; format: cell-based
[8] = system: Streptococcus pyogenes W.; assay: as above; format: cell-based
Clostridium tetani = format: cell-based; details: 100 μg/ml, 24 hours

| Compound | MIC (E. coli 14) | MIC (Ent. ATCC 9790) | MIC (Staph. aureus 133) | MIC (Staph. aureus 1756) | MIC (E. coli C 165) | other results |
| --- | --- | --- | --- | --- | --- | --- |
| CC1(C)S[C@@H]2[C@H](NC(=O)C3(Cl)CCCC3=O)C(=O)N2[C@H]1C(=O)O (some centres unmarked) [Example 8, Sodium salt of 6-(cyclopentanone-2-chloro-2-carboxamido)-penicillanic acid] | 128 U/ml | 128 U/ml | 2-4 U/ml |  |  |  |
| CC1(C)S[C@@H]2[C@H](NC(=O)C3CCC(Cl)C3)C(=O)N2[C@H]1C(=O)O (some centres unmarked) [Example 6, sodium salt of 6-(4-chloro-1-cyclopentylcarboxamide)-penicillanic acid] | 32 U/ml | 8-16 U/ml | 0.1 U/ml | 32-64 U/ml | 128 U/ml |  |
| CC1(C)S[C@@H]2[C@H](NC(=O)C3CC3C#N)C(=O)N2[C@H]1C(=O)O (some centres unmarked) [Example 3, sodium salt of 6-(2-cyano-1-cyclopropylcarboxamido)-penicillanic acid] | 128-256 U/ml | 64-128 U/ml | 2-4 U/ml |  |  |  |
| CC1(C)S[C@@H]2[C@H](NC(=O)C3(C)CC3(Br)Br)C(=O)N2[C@H]1C(=O)O (some centres unmarked) [Example 2, sodium salt of 6-(2,2-dibromo-1-methyl-cyclopropyl-carboxamido)-penicillanic acid] | 128 U/ml | 32 U/ml | 0.2 U/ml | 128 U/ml |  |  |
| CC1(C)S[C@@H]2[C@H](NC(=O)C3CC(Cl)C3)C(=O)N2[C@H]1C(=O)O (some centres unmarked) [Example 4, sodium salt of 6-(3-chloro-cyclobutylcarboxamido)-penicillanic acid] | 32-64 U/ml | 8-16 U/ml | 2-4 U/ml | 32-64 U/ml | 128-256 U/ml |  |
| CC1(C)S[C@@H]2[C@H](NC(=O)C3CC(Cl)C(Cl)C3)C(=O)N2[C@H]1C(=O)O (some centres unmarked) [Example 7, sodium salt of 6-(3,4-dichlorocyclopentylcarboxamido)-penicillanic acid] | 32 U/ml | 8-16 U/ml | 0.1 U/ml | 32-64 U/ml | 128 U/ml |  |
| CC1(C)S[C@@H]2[C@H](NC(=O)C3CCC(Cl)CC3)C(=O)N2[C@H]1C(=O)O (some centres unmarked) [Example 9, sodium salt of 6-(4-chloro-1-cyclohexylcarboxamido)-penciillanic acid] | 64 U/ml | 8-16 U/ml | 0.1 U/ml | 64 U/ml |  |  |
| CC1(C)S[C@@H]2[C@H](NC(=O)C3(C#N)CCC3)C(=O)N2[C@H]1C(=O)O [Example 5, sodium salt of 6(1-cyano-1-cyclobutylcarboxamido)-penicillanic acid] | 32-64 U/ml | 8 U/ml | 0.2 U/ml | 128 U/ml | 128 U/ml |  |
| CC1(C)S[C@@H]2[C@H](NC(=O)C3(C)CC3(Cl)Cl)C(=O)N2[C@H]1C(=O)O (some centres unmarked) [Example 1, sodium salt of 6-(2,2-dichloro-1-methyl-cyclopropylcarboxamido)-penicillanic acid] | 128 U/ml | 16-32 U/ml | 0.2 U/ml | 32-64 U/ml |  | freedom from turbidity (anti-bacterial action) [1]: free from turbidity; freedom from turbidity (anti-bacterial action) (E. coli BE): free from turbidity; freedom from turbidity (anti-bacterial action) [2]: free from turbidity; freedom from turbidity (anti-bacterial action) (Brucella sp.): free from turbidity; freedom from turbidity (anti-bacterial action) (Shigella sp.): free from turbidity; freedom from turbidity (anti-bacterial action) [3]: free from turbidity; freedom from turbidity (anti-bacterial action) (Haemophilus influenzae): free from turbidity; freedom from turbidity (anti-bacterial action) (Enterococcus sp.): free from turbidity; freedom from turbidity (anti-bacterial action) [4]: free from turbidity; freedom from turbidity (anti-bacterial action) (Salmonella sp.): free from turbidity; freedom from turbidity (anti-bacterial action) (Clostridium botulinium): free from turbidity; freedom from turbidity (anti-bacterial action) [5]: free from turbidity; freedom from turbidity (anti-bacterial action) [6]: free from turbidity; freedom from turbidity (anti-bacterial action) (Lactobacillus sp.): free from turbidity; freedom from turbidity (anti-bacterial action) (Bordetella bronciseptica): free from turbidity; freedom from turbidity (anti-bacterial action) [7]: free from turbidity; freedom from turbidity (anti-bacterial action) [8]: free from turbidity; freedom from turbidity (anti-bacterial action) (Clostridium tetani): free from turbidity |
